Measured values from US10058587B2, “Peptide composition for cancer treatment by inhibiting TRPV6 calcium channel activity” (priority 2008, dated 2018).
Where no end group is shown, it is not given here.

Experiments:
[1] = Storage stability of solid and aqueous solution; type: physicochemical
Procedure: Additionally, the peptides have greater shelf-life stability and solution stability due to the presence of fewer sensitive disulfide bonds (soricidin has 3 disulfide bonds). The peptides of the invention optionally have no disulfide bonds. An absence of disulfide bonds provides a very long shelflife during storage under minimal refrigeration or at room temperature as a solid. Additionally when the peptides of the invention with no disulfide bonds are dissolved in water, cleavage of disulfide bonds cannot occur. […] The formation of inter-peptide S—S bonds also results in precipitation of soricidin. The peptides of the invention, such as SorC13 and SorC27, are typically stable in aqueous solution at 8° C. for at least 3 weeks with no change in purity as measured by HPLC.
“Very stable” in the above table means that there was no observable degradation of the solid peptides over 6 months. As a solution in sterile water, the peptides are typically stable for at least 3 weeks at 8° C. and at −20° C., are expected to be stable more than 1 year.

[2] = Degradation rate in rat plasma (HPLC); type: in vitro ADME
Procedure: Rat plasma was obtained from blood taken from sacrificed rats (Sprague-Dawley) and placed into heparinized glass vials to prevent clotting. Whole blood was centrifuged at 8000×g for 5 minutes to spin down the cells leaving the plasma as supernatant. Human whole blood samples from healthy humans were taken in lithium-heparinized vacuum tubes. The samples were placed into 2.0 mL microcentrifuge tubes and centrifuged at 8000×g for 5 min. The plasma was carefully separated from red blood cells and used immediately.
Determination of degradation rate of the C-peptides was done by measuring, with the HPLC protocol, the amount of either SorC13 or SorC27 in dosed plasma samples, after time. Sample tubes (500 uL) containing 2 uL of 2 mM Pefabloc were previously prepared for sample delivery SorC13 (1.0 mg) or SorC27 (2.0 mg) were dissolved in 1.0 mL of fresh plasma (37° C.) and placed in an incubating water bath at 37° C. A sample (100 uL) was taken immediately and quenched in sample tubes containing 2 uL of 2 mM Pefabloc, mixed vigorously and immediately frozen at −80° C. This initial sample represented time zero for the run. At successive time intervals of 5 minutes, 100 uL samples were withdrawn, quenched in Pefabloc, mixed, and frozen at −80° C. until analysis.
The rat plasma degradation rate was determined for the plasma from three different rats, while the rate of degradation in human plasma used six separate plasma samples. The data used were the means (±SEM) and were fitted to a simple one-phase exponential decay model to determine the half-life of the two peptides. This also allowed the calculation of a static degradation rate. FIG. 11 is illustrative of the rate at which SorC27 was degraded in human plasma.

[3] = test system: HEY C2 ovarian cancer cell line; assay: Induction of apoptosis (APO-ONE caspase 3/7) and cell viability (CellTiter Blue); type: cell-based, human; parameters: key to Decline in cell viability: decreased (+); or not (−)
Procedure: HeyC2 was cultured in RPMI 1640 medium supplemented with 1.0 mM sodium pyruvate, 0.01 mg/mL insulin and 10% (v/v) fetal bovine serum.
(§1) The levels of apoptotic induction and cell viability were determined by multiplexing the measurements for single samples. CellTiter Blue and APO-ONE assay systems from Promega allows the determination of cell viability correlated to cell number, and induction of apoptosis. This protocol uses a fluorgenic peptide that contains a peptide recognition-sequence for caspase 3 and caspase 7, […] proteolytic enzymes of the apoptosis cascade. The CellTiter Blue reagent was added to wells in a 96-well plate containing cells under test, immediately after addition of peptide solution or vehicle. About 5000 cells were plated into the wells the day before. At the chosen time (Day 1, Day 2 etc.) the fluorescence was measured at 590 nm (emission) after excitation at 560 nm. The caspase 3/7 activity was measured (485 nm Ex/527 nm Em) in the same wells after adding 120 uL of the Apo-ONE reagent, freeze fracturing at −80° C. for 1 hr, and incubating for 1 hr at room temperature.
(§2) For this work, the concentrations of SorC13 and SorC27 used were 0 uM, 1 uM, 10 uM and 100 uM. The experiments extended over a 5 to 7 day period. All measurements were done in quadruplicate with both a blank (no cells) and control (vehicle, no peptide) used to correct the test measurements. The time-response data, and the dose-response data were plotted as means±standard error of the mean. Any statistical comparisons were done with the Student's t-test or by ANOVA analysis over the dose course. The level of statistical significance was considered to be the 95% confidence interval (i.e., p≤0.05).

Solubility (aqueous) = conditions: aqueous
[4] = test system: MCF 7 breast cancer cell line; assay: Induction of apoptosis (APO-ONE caspase 3/7) and cell viability (CellTiter Blue); type: cell-based, human; parameters: key: decreased (+); or not (−); conditions: SorC27
Procedure: (§3) MCF-7, MDA-MB-231, MDA-MB-415, MDA-MB-468 were grown in DMEM modified with 10% (v/v) fetal bovine serum, 2 mM L-glutamine and 50 ug/mL each of penicillin and streptomycin.
as §1
For this work, the concentrations of SorC13 and SorC27 used were 0 uM, 1 uM, 10 uM and 100 uM. The experiments extended over a 5 to 7 day period. […]

[5] = test system: T 47D breast cancer cell line; assay: as above; type: cell-based, human; parameters: key to Decline in cell viability: cell viability decreased (+); or not (−)
Procedure: T 47D was cultured in RPMI medium (Sigma-Aldrich) modified with 15% fetal bovine serum, 2 mM L-glutamine, 1 mM sodium pyruvate, 0.1 mg/mL bovine insulin and penicillin plus streptomycin mixture (50 ug/mL each).
as §1, §2
To benchmark the effect of both C-type peptides to the gold-standard treatment presently used against breast cancer (Paclitaxel), SorC13, SorC27 and Paclitaxel (10 uM) were compared. Both the APO-ONE assay (Promega) and the CellTiter Blue were used on the panel of breast cancer cell lines. The data were compared directly in terms of mean response and tested for significant difference.

[6] = test system: MCF 7 breast cancer cell line; assay: as above; type: cell-based, human; parameters: key: cell viability decreased (+); or not (−)
Procedure: as §3, §1, §2
To benchmark the effect of both C-type peptides to the gold-standard treatment presently used against breast cancer (Paclitaxel), SorC13, SorC27 and Paclitaxel (10 uM) were compared. Both the APO-ONE assay (Promega) and the CellTiter Blue were used on the panel of breast cancer cell lines. […]

EGKLSSNDTEGGLCKEFLHPSKVDLPR [SorC27]
Stability in aqueous solution @ −20° C. [1]: Very stable | Stability solid @ Room Temp. [1]: Very stable | Stability solid @ −20° C. [1]: Very stable | half-life ([2]; Sprague-Dawley, rat, plasma, 37° C.): 21 min | binding to plasma proteins ([2]; rat plasma): doesn't bind to | Apoptosis Index (1 = no effect) ([3]; Day 6, SorC27 100 uM): 1.4 | Apoptosis Index (1 = no effect) ([3]; Day 7, SorC27 10 uM): 2.2 | Apoptosis Index (1 = no effect) ([3]; Day 7, SorC27 100 uM): 2.8 | Decline in cell viability ([3]; SorC27): + | solubility (Solubility (aqueous)): > 200 mg/mL | Decline in cell viability [4]: +

KEFLHPSKVDLPR [SorC13, KEFLHPSKVDLPR]
Apoptosis Index (1 = no effect) ([5]; SorC13 1 uM): 2.0 | Decline in cell viability ([5]; SorC13 1 uM): + | Apoptosis Index (1 = no effect) ([5]; SorC13 10 uM): 2.8 | Decline in cell viability ([5]; SorC13 10 uM): + | induction of apoptosis compared with Paclitaxel (10 uM) ([5]; SorC13 10 uM): more effective at inducing a faster and more intense apoptotic response | Apoptosis Index (1 = no effect) ([5]; SorC13 100 uM): 4.3 | Decline in cell viability ([5]; SorC13 100 uM): + | Decline in cell viability ([6]; SorC13 1 uM): − | Decline in cell viability ([6]; SorC13 10 uM): − | Decline in cell viability ([6]; SorC13 100 uM): +
